Laboratory results published in US20240279202A1 (NURIX THERAPEUTICS, INC., priority 2021, published 2024).

Target: T1, ITK (Homo sapiens, UniProt Q08881)
T1 sequence (Q08881 1-620): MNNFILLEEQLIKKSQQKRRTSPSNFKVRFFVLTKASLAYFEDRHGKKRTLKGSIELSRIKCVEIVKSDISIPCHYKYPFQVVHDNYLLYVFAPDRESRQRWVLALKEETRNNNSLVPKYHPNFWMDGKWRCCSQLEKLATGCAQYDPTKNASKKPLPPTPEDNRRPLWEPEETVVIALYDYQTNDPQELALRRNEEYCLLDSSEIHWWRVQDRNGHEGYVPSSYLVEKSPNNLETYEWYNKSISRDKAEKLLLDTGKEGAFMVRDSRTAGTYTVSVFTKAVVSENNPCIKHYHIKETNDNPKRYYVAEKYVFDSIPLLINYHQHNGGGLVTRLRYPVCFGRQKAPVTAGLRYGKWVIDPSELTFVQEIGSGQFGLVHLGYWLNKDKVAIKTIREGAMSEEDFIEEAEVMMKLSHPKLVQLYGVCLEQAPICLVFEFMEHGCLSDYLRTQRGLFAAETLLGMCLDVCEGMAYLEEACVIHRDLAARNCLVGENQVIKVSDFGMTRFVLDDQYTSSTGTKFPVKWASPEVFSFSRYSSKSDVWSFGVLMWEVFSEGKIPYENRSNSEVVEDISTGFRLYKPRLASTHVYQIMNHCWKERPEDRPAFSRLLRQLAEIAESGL
Assay: ITK degradation MSD (Meso Scale Discovery) assay
Assay type: cell-based
Design: either human Jurkat (Clone E6-1 ATCC TIB-152) or Motl4 (ATCC CRL-1552), were plated; endogenous in cells; host or cells: Jurkat clone E6-1 (ATCC TIB-152) or Molt4 (ATCC CRL-1552)
Settings: Jurkat or Molt4 cells, 4 or 6 hrs
Procedure: ITK Degradation MSD (Meso Scale Discovery) Assay Compound dilution series (7-point, 5 fold dilutions in DMSO, rows B-H with replicate in Column 1⁄2, 3⁄4, 5⁄6, 7,8, at 2000× the final required concentrations were prepared in 96 well plates (Falcon, cat. no. 353077). Row A, Column 1-8 were control DMSO. The 2000× solutions ranged from 2 mM to 128 nM (final assay concentration range 1 μM to […]). The 2000× solutions were added to cells in […], for a final DMSO concentration of 0.5% and final assay compound concentration of 1×. For the cells, either human Jurkat (Clone E6-1 ATCC TIB-152) or Motl4 (ATCC CRL-1552), were plated at 1×10^6 cells/mL, 100 μL/well ([…]) in complete RPMI (10% FBS, 1% L-glutamine). Cells were incubated for 4 or 6 hrs at 32° C./6% CO2. Following incubation, plates were centrifuged at 1200 rpm for 5 min. supernatant was removed and 50 μL of cell lysis buffer ((MSD Tris lysis buffer (R60TX), Complete Mini EDTA-free protease inhibitor (Sigma 11836170001), Protease Inhibitor Cocktail (Sigma, P2714), Phosphatase Inhibitor Cocktail 2 and 3 (Sigma, P5726 and P0044), and Benzonase (Sigma, E1014)) was added to each well. Plates were sealed and shook at 4° C. for 30 min. Plates were centrifuged and 45 μL was removed for plate assays. Assay plate preparation: Meso Scale Discovery (MSD) multi-array sm spot 96 well plates (Goat anti-Rabbit L^45-RA), were blocked with 3% BSA blocking buffer (3% Bovine Serum Albumin (Sigma A3059)+TBS 0.2% Tween-20) for 1 hr with gentle rocking at room temperature. Plates were then washed with 200 μL of 1× TBST (TBS 0.2% Tween-20) 3 times. After last wash, liquid was removed and 50 μL per well of capture antibody (abcam ITK Y402-ab32507) was added to plates at a 1:1000 dilution in blocking buffer (above). Plates were sealed and rocked at room temperature for 2 hrs. Plates were then washed 3 times with 200 μL of 1× TBST. After last wash, liquid was removed and 45 μL of cell lysate (from above) was added to each plate. Plates were sealed and rocked overnight at 4° C. Next day, cell lysates were removed, and assay plates were washed 3 times with 200 μL of 1× TBST. After last wash, liquid was removed and detection antibody (CST ITK (2F12) #2380) was added at 50 μL per well at a dilution of 1:1000 in blocking buffer. Plates were sealed and rocked at room temperature for 2 hrs. Plates were washed 3 times with 200 uL of 1× TBST. After last wash, liquid was removed, MSD Mouse anti-Rabbit sulfo tag (R32AC-1) was diluted to 1:1000 in blocking buffer. 50 μL was added to each well on the plate. Plates were sealed and incubated at room temperature for 1 hr. Plates were washed 3 times with 200 μL of 1× TBST. After last wash, liquid was removed and 150 μL of 1× MSD Read Buffer T ([…]) was then added to each well for ECL read out. For reading ECL signal, plate is read on a Meso Scale Discovery (MSD) MESO Sector S 600 plate reader. Percent ITK in then calculated as described below. Percent ITK remaining per sample was calculated as follows: [formula] Using Graphpad Prism, % ITK remaining values were plotted as a function of compound concentration. To determine DC50 and Dmax values, resulting curves were fit to the Prism curve-fitting equation “log(inhibitor) vs response-Variable slope (four parameters)” (reported best fit value IC50 used as DC50).

Compound | DC50 [nM] | Dmax [%]
C[C@@]12Cc3[nH]nc(C(=O)Nc4cnn([C@H](c5ccccc5)C5CN(CCOCCOCCOCCOCCOCCNc6cccc7c6C(=O)N(C6CCC(=O)NC6=O)C7=O)C5)c4)c3C[C@@H]1C2(F)F (stereo partly drawn) [Compound 31, (4aS,5aR)-N-(1-((1S)-(1-(17-((2-(2,6-dioxopiperidin-3-yl)-1,3-dioxoisoindolin-4-yl)amino)-3,6,9,12,15-pentaoxaheptadecyl)azetidin-3-yl)(phenyl)methyl)-1H-pyrazol-4-yl)-5,5-difluoro-5a-methyl-1,4,4a,5,5a,6-hexahydrocyclopropa[f]indazole-3-carboxamide] | 44 | 95
C[C@@]12Cc3[nH]nc(C(=O)Nc4cnn([C@H](c5ccccc5)C5CN(C(=O)CCOCCOCCOCCNc6cccc7c6C(=O)N(C6CCC(=O)NC6=O)C7=O)C5)c4)c3C[C@@H]1C2(F)F (stereo partly drawn) [Compound 28, (4aS,5aR)-N-(1-((1S)-(1-(3-(2-(2-(2-((2-(2,6-dioxopiperidin-3-yl)-1,3-dioxoisoindolin-4-yl)amino)ethoxy)ethoxy)ethoxy)propanoyl)azetidin-3-yl)(phenyl)methyl)-1H-pyrazol-4-yl)-5,5-difluoro-5a-methyl-1,4,4a,5,5a,6-hexahydrocyclopropa[f]indazole-3-carboxamide] | 3.9 | 94
C[C@@]12Cc3[nH]nc(C(=O)Nc4cnn([C@H](c5ccccc5)C5CN(C(=O)CCOCCOCCOCCOCCOCCNc6cccc7c6C(=O)N(C6CCC(=O)NC6=O)C7=O)C5)c4)c3C[C@@H]1C2(F)F (stereo partly drawn) [Compound 29, (4aS,5aR)-N-(1-((1S)-(1-(1-((2-(2,6-dioxopiperidin-3-yl)-1,3-dioxoisoindolin-4-yl)amino)-3,6,9,12,15-pentaoxaoctadecan-18-oyl)azetidin-3-yl)(phenyl)methyl)-1H-pyrazol-4-yl)-5,5-difluoro-5a-methyl-1,4,4a,5,5a,6-hexahydrocyclopropa[f]indazole-3-carboxamide] | 21 | 95
C[C@@]12Cc3[nH]nc(C(=O)Nc4cnn([C@H](c5ccccc5)C5CN(C(=O)CCOCCOCCOCCOCCOCCOCCOCCOCCNc6cccc7c6C(=O)N(C6CCC(=O)NC6=O)C7=O)C5)c4)c3C[C@@H]1C2(F)F (stereo partly drawn) [Compound 30, (4aS,5aR)-N-(1-((1S)-(1-(1-((2-(2,6-dioxopiperidin-3-yl)-1,3-dioxoisoindolin-4-yl)amino)-3,6,9,12,15,18,21,24-octaoxaheptacosan-27-oyl)azetidin-3-yl)(phenyl)methyl)-1H-pyrazol-4-yl)-5,5-difluoro-5a-methyl-1,4,4a,5,5a,6-hexahydrocyclopropa[f]indazole-3-carboxamide] | 20 | 92
C[C@@]12Cc3[nH]nc(C(=O)Nc4cnn([C@H](c5ccccc5)C5CN(C(=O)CCOCCNc6cccc7c6C(=O)N(C6CCC(=O)NC6=O)C7=O)C5)c4)c3C[C@@H]1C2(F)F (stereo partly drawn) [Compound 27, (4aS,5aR)-N-(1-((1S)-(1-(3-(2-((2-(2,6-dioxopiperidin-3-yl)-1,3-dioxoisoindolin-4-yl)amino)ethoxy)propanoyl)azetidin-3-yl)(phenyl)methyl)-1H-pyrazol-4-yl)-5,5-difluoro-5a-methyl-1,4,4a,5,5a,6-hexahydrocyclopropafindazole-3-carboxamide] | 3.8 | 92

More lines, now with the values ahead:

DC50 [nM] | Dmax [%] | Compound
0.88 | 94 | CC(C1CN(C(=O)C2CN(C3CCN(c4ccc5c(c4)C(=O)N(C4CCC(=O)NC4=O)C5=O)CC3)C2)C1)n1cc(NC(=O)c2n[nH]c3c2C[C@@H]2C(F)(F)[C@]2(C)C3)cn1 (stereo partly drawn) [Compound 39, (4aS,5aR)-N-(1-(1-(1-(1-(1-(2-(2,6-dioxopiperidin-3-yl)-1,3-dioxoisoindolin-5-yl)piperidin-4-yl)azetidine-3-carbonyl)azetidin-3-yl)ethyl)-1H-pyrazol-4-yl)-5,5-difluoro-5a-methyl-1,4,4a,5,5a,6-hexahydrocyclopropa[f]indazole-3-carboxamide]
1.6 | 72 | C[C@@]12Cc3[nH]nc(C(=O)Nc4cnn([C@H](c5ccccc5)C5CN(C(=O)C6CN(C7CCN(c8ccc(NC9CCC(=O)NC9=O)cn8)CC7)C6)C5)c4)c3C[C@@H]1C2(F)F (stereo partly drawn) [Compound 36, (4aS,5aR)-N-(1-((1S)-(1-(1-(1-(5-((2,6-dioxopiperidin-3-yl)amino)pyridin-2-yl)piperidin-4-yl)azetidine-3-carbonyl)azetidin-3-yl)(phenyl)methyl)-1H-pyrazol-4-yl)-5,5-difluoro-5a-methyl-1,4,4a,5,5a,6-hexahydrocyclopropa[f]indazole-3-carboxamide]
25 | 69 | C[C@@]12Cc3[nH]nc(C(=O)Nc4cnn([C@H](c5ccccc5)C5CN(C(=O)CCCCc6cccc7c6CN(C6CCC(=O)NC6=O)C7=O)C5)c4)c3C[C@@H]1C2(F)F (stereo partly drawn) [Compound 32, (4aS,5aR)-N-(1-((1S)-(1-(5-(2-(2,6-dioxopiperidin-3-yl)-1-oxoisoindolin-4-yl)pentanoyl)azetidin-3-yl)(phenyl)methyl)-1H-pyrazol-4-yl)-5,5-difluoro-5a-methyl-1,4,4a,5,5a,6-hexahydrocyclopropa[f]indazole-3-carboxamide]
0.57 | 86 | C[C@@]12Cc3[nH]nc(C(=O)Nc4cnn([C@H](c5ccccc5)C5CN(CC6CN(c7ccc8c(c7)C(=O)N(C7CCC(=O)NC7=O)C8=O)CCO6)C5)c4)c3C[C@@H]1C2(F)F (stereo partly drawn) [Compound 41, (4aS,5aR)-N-(1-((1S)-(1-((4-(2-(2,6-dioxopiperidin-3-yl)-1,3-dioxoisoindolin-5-yl)morpholin-2-yl)methyl)azetidin-3-yl)(phenyl)methyl)-1H-pyrazol-4-yl)-5,5-difluoro-5a-methyl-1,4,4a,5,5a,6-hexahydrocyclopropa[f]indazole-3-carboxamide]
